Measured values from patent US8778919B2, “Cyclic anilino—pyridinotriazines” (Janssen Pharmaceutica NV, priority 2005, dated 2014).

Key:
Type in all cases: biochemical
CDK3/cyclinE (h) = CDK3/cyclinE (h) (Homo sapiens, UniProt Q00526); assay: Kinase profiling C3.5 CDK3/cyclinE human; conditions: test concentration of 10^−6 M
Experimental: (§1) The in vitro inhibition of a panel of kinases was assessed using either the glass-fiber filter technology as described by Davies, S. P. et al., Biochem J. (2000), 351; p. 95-105. In the glass-fiber filter technology the activity of the kinase of interest is measured using an appropriate substrate that is incubated with the aforementioned kinase protein in the presence of (^33P) radiolabeled ATP. (^33P) Phosporylation of the substrate is subsequently measured as radioactivity bound on a glassfiber-filter.
(§2) All kinases are pre-diluted to a 10× working concentration prior to addition into the assay. The composition of the dilution buffer for each kinase is detailed below.
(§3) All substrates are dissolved and diluted to working stocks in de-ionised water, apart from histone H1 that is stored in 10× working stock in 20 mM MOPS pH 7.4.
(§4) In a final reaction volume of 25 μl, CDK3/cyclinE (h) (5-10 mU) is incubated with 8 mM MOPS pH 7.0, 0.2 mM EDTA, 0.1 mg/ml histone H1, 10 mM MgAcetate and [γ-^33P-ATP] (specific activity approx. 500 cpm/pmol, concentration as required). The reaction is initiated by the addition of the MgATP mix. After incubation for 40 minutes at room temperature, the reaction is stopped by the addition of 5 μl of a 3% phosphoric acid solution. 10 μl of the reaction is then spotted onto a P30 filtermat and washed three times for 5 minutes in 75 mM phosphoric acid and once in methanol prior to drying and scintillation counting.

GSK-3β = GSK-3β (Homo sapiens, UniProt P49841); assay: GSK-3 kinase assay (C1), GSK-3β; conditions: 1 μM ATP, read-out: C1 Score β
Sequence of GSK-3β (P49841 whole entry, species assumed): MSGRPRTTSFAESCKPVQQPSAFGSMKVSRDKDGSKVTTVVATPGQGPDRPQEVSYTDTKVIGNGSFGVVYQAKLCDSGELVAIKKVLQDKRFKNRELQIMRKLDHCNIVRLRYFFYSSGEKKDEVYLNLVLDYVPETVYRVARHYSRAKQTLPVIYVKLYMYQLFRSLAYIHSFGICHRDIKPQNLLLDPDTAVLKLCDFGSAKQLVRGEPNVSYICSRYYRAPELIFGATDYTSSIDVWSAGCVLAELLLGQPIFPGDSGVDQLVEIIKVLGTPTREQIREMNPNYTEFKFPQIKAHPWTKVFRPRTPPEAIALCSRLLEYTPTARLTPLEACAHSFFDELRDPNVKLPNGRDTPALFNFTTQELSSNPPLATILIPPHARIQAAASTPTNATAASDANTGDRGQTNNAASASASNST
Experimental: (§5) In vitro GSK-3 assays were performed at room temperature in a 100 μl reaction volume of 25 mM Tris (pH 7.4) containing 10 mM MgCl2.6H2O, 1 mM DTT, 0.1 mg/ml BSA, 5% glycerol, 5.7 ng/μl GSK-3β or 0.25 ng/μl GSK-3α, 5 μM biotinylated CREB peptide, 1 μM ATP, 0.85 μCi/ml ^33P-ATP and a suitable amount of a test compound. After one hour, the reaction was terminated by adding 70 μl of Stop mix (0.1 mM ATP, 5 mg/ml streptavidin coated PVT SPA beads, pH 11.0). The beads were allowed to settle overnight and the radioactivity attached to the beads was counted in a microtiter plate scintillation counter and compared with the results obtained in a control experiment (without the presence of a test compound) in order to determine the percentage of GSK-3 inhibition. The IC50 value, i.e. the concentration (M) of the test compound at which 50% of GSK-3 is inhibited, was calculated from the dose response curve obtained by performing the above-described GSK-3 assay in the presence of different amounts of the test compound. Score 1=pIC50 value<6, Score 2=pIC50 value from 6-7, Score 3=pIC50 value from 7-8, Score 4=pIC50 value>8.

CDK2/cyclinE (h) = CDK2/cyclinE (h) (Homo sapiens, UniProt P24941); assay: Kinase profiling C3.4 CDK2/cyclinE human; conditions: test concentration of 10^−6 M
Experimental: as §1, §2, §3
as §4, with “CDK2/cyclinE” for “CDK3/cyclinE”

CDK2/cyclinA (h) = CDK2/cyclinA (h) (Homo sapiens, UniProt P24941); assay: Kinase profiling C3.3 CDK2/cyclinA human; conditions: test concentration of 10^−6 M
Experimental: as §1, §2, §3
as §4, with “CDK2/cyclinA” for “CDK3/cyclinE”

GSK-3α = GSK-3α (Homo sapiens, UniProt P49840); assay: GSK-3 kinase assay (C1), GSK-3α; conditions: 1 μM ATP, read-out: C1 Score α
Sequence of GSK-3α (P49840 whole entry, species assumed): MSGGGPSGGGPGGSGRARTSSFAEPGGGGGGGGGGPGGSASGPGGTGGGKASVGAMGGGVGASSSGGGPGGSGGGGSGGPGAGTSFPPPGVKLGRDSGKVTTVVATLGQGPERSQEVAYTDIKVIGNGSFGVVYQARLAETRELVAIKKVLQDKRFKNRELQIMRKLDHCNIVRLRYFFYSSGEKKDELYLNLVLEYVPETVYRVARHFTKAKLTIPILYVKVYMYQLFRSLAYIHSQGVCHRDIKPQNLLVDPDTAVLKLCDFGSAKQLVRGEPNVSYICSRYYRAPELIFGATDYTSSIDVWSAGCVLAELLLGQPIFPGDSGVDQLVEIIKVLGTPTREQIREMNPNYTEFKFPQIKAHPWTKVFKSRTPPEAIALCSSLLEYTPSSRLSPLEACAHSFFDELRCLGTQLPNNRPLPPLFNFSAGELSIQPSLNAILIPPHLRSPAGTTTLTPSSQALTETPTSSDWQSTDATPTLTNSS
Experimental: as §5

CDK1/cyclinB (h) = CDK1/cyclinB (h) (Homo sapiens, UniProt P06493); assay: Kinase profiling C3.2 CDK1/cyclinB human; conditions: test concentration of 10^−6 M
Sequence of CDK1/cyclinB (h) (P06493 whole entry): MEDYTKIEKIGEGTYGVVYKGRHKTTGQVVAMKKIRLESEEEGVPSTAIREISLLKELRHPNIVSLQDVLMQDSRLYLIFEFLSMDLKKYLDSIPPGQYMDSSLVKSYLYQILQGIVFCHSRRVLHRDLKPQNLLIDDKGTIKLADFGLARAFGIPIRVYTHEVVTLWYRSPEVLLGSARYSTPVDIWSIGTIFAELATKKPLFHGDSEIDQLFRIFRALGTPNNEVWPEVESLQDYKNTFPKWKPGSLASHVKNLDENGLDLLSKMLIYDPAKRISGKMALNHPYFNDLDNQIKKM
Sequence of CDK1/cyclinB (h) (P14635 whole entry partner): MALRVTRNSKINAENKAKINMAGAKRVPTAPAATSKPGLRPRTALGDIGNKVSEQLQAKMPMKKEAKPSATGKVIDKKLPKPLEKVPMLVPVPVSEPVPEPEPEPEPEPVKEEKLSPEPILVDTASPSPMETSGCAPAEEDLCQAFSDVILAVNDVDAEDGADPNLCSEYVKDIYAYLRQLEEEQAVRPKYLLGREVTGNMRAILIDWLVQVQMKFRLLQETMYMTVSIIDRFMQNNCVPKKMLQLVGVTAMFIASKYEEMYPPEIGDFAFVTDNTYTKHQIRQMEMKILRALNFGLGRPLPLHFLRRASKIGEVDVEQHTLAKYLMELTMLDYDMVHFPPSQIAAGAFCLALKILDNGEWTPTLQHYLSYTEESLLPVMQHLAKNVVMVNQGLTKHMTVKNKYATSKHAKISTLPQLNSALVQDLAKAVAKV
Experimental: as §1, §2, §3
as §4, with “CDK1/cyclinB” for “CDK3/cyclinE”

CDK5/p35 human = CDK5/p35 human (Homo sapiens, UniProt Q00535); assay: Kinase profiling C3.6 CDK5/p35 human; conditions: CDK5/p35, test concentration of 10^−6 M
Sequence of CDK5/p35 human (Q00535 whole entry): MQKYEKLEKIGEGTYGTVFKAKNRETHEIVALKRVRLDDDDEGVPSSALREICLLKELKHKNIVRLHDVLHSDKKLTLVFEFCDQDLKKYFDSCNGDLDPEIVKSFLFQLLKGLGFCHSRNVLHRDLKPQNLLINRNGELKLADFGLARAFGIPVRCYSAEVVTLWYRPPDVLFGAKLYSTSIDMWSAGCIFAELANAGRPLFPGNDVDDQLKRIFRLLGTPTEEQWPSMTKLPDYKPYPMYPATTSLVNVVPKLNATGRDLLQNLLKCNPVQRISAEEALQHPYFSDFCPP
Sequence of CDK5/p35 human (Q15078 whole entry partner): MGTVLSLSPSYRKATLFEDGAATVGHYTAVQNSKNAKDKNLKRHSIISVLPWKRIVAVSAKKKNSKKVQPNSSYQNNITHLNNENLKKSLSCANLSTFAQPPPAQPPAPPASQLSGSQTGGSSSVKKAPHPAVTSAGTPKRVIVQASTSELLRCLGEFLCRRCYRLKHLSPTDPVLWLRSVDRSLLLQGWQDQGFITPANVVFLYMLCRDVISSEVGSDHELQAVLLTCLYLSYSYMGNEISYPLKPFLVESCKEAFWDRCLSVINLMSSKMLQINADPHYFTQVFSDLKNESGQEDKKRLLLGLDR
Experimental: as §1, §2, §3
as §4, with “CDK5/p35 human” for “CDK3/cyclinE (h)”

CDK6/cyclinD3 human = CDK6/cyclinD3 human (Homo sapiens, UniProt Q00534); assay: Kinase profiling C3.7 CDK6/cyclinD3 human; conditions: CDK6/cyclinD3, test concentration of 10^−6 M
Sequence of CDK6/cyclinD3 human (Q00534 whole entry): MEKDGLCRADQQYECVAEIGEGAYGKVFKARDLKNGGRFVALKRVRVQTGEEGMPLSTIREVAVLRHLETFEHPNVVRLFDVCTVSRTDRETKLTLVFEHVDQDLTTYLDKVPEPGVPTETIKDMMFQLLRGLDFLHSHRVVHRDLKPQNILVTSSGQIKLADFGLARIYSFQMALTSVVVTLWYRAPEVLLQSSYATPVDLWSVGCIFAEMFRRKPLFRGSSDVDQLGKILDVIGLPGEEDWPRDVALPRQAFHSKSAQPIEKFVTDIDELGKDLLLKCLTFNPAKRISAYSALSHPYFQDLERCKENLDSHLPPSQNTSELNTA
Sequence of CDK6/cyclinD3 human (P30281 whole entry partner): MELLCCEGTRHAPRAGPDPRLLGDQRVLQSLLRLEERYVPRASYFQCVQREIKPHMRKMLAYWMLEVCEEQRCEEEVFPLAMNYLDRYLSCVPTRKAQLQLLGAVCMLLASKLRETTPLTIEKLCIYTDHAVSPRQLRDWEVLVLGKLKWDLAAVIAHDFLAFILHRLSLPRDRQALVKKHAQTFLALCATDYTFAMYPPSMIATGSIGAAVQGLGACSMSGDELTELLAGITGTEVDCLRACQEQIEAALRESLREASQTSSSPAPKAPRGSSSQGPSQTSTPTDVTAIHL
Experimental: as §1, §2, §3
as §4, with “CDK6/cyclinD3 human” for “CDK3/cyclinE (h)”

CDK7/cyclinH/MAT1 (h) = CDK7/cyclinH/MAT1 (h) (Homo sapiens, UniProt P50613); assay: Kinase profiling C3.8 CDK7/cyclinH/MAT1 human; conditions: CDK7/cyclinH/MAT1, test concentration of 10^−6 M
Sequence of CDK7/cyclinH/MAT1 (h) (P50613 whole entry): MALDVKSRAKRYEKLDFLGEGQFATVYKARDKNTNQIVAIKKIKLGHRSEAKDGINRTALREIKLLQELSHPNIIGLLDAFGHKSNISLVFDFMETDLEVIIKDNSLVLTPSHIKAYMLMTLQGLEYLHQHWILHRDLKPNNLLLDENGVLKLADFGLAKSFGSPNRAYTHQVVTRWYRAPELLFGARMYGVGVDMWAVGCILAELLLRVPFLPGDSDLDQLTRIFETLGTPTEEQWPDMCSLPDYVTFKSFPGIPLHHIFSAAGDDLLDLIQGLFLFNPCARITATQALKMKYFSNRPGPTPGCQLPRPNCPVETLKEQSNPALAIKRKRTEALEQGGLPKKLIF
Sequence of CDK7/cyclinH/MAT1 (h) (P51946 whole entry partner): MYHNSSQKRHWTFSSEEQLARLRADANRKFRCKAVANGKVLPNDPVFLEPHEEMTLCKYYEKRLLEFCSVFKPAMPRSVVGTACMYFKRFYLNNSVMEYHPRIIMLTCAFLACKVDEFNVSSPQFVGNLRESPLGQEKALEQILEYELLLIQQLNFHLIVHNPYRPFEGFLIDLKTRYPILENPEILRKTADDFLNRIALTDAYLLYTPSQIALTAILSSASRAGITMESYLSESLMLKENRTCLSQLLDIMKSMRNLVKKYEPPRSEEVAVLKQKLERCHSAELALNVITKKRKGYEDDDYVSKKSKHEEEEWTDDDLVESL
Sequence of CDK7/cyclinH/MAT1 (h) (P51948 whole entry partner): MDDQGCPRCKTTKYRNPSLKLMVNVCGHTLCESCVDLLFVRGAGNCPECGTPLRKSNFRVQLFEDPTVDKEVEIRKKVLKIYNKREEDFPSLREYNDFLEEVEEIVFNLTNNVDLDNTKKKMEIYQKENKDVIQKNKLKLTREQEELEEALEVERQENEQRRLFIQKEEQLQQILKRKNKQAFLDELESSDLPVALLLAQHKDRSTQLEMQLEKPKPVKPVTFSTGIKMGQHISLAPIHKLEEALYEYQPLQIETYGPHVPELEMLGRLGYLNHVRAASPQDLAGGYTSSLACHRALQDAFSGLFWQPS
Experimental: as §1, §2, §3
as §4, with “CDK7/cyclinH/MAT1” for “CDK3/cyclinE”, “500 μM peptide,” for “0.1 mg/ml histone H1,”

| C3.5 score (CDK3/cyclinE (h)) | IC50 (GSK-3β) | C3.4 score (CDK2/cyclinE (h)) | C3.3 score (CDK2/cyclinA (h)) | IC50 (GSK-3α) | C3.2 score (CDK1/cyclinB (h)) | C3.6 score (CDK5/p35 human) | C3.7 score (CDK6/cyclinD3 human) | C3.8 score (CDK7/cyclinH/MAT1 (h)) | Structure (SMILES) |
| --- | --- | --- | --- | --- | --- | --- | --- | --- | --- |
| 3 (Score 3 = 60-80% inhibition) | 100 to 1000 nM | 4 (Score 4 = >80% inhibition) | 3 (Score 3 = 60-80% inhibition) | 100 to 1000 nM | 2 (Score 2 = 30-60% inhibition) | 2 (Score 2 = 30-60% inhibition) | 1 (Score 1 = 10-30% inhibition) | 1 (Score 1 = 10-30% inhibition) | CN1Cc2cccc(c2)Nc2ncnc(n2)-c2ccnc(c2)NCCCNC(=O)CCN2CCC1CC2 [Compound 23] |
| 2 (Score 2 = 30-60% inhibition) | 10 to 100 nM | 3 (Score 3 = 60-80% inhibition) | 3 (Score 3 = 60-80% inhibition) | 100 to 1000 nM | 2 (Score 2 = 30-60% inhibition) | 2 (Score 2 = 30-60% inhibition) | 1 (Score 1 = 10-30% inhibition) | 3 (Score 3 = 60-80% inhibition) | CN1CCCC(=O)NCCc2cccc(c2)Nc2ncnc(n2)-c2ccnc(c2)CCC1 [Compound 24] |
| 3 (Score 3 = 60-80% inhibition) | 10 to 100 nM | 4 (Score 4 = >80% inhibition) | 4 (Score 4 = >80% inhibition) | 10 to 100 nM | 3 (Score 3 = 60-80% inhibition) | 2 (Score 2 = 30-60% inhibition) | 2 (Score 2 = 30-60% inhibition) | 2 (Score 2 = 30-60% inhibition) | O=C1NCCc2cccc(c2)Nc2ncnc(n2)-c2ccnc(c2)CCCN2C[C@H](O)C[C@@H]12 [Compound 25] |
| 3 (Score 3 = 60-80% inhibition) | 10 to 100 nM | 4 (Score 4 = >80% inhibition) | 3 (Score 3 = 60-80% inhibition) | 10 to 100 nM | 1 (Score 1 = 10-30% inhibition) | 2 (Score 2 = 30-60% inhibition) | 1 (Score 1 = 10-30% inhibition) | 2 (Score 2 = 30-60% inhibition) | O=C1NCCc2cccc(c2)Nc2ncnc(n2)-c2ccnc(c2)CCCN2CCCC1C2 (stereo not drawn) [Compound 26] |
| 1 (Score 1 = 10-30% inhibition) | 100 to 1000 nM | 2 (Score 2 = 30-60% inhibition) | 3 (Score 3 = 60-80% inhibition) | 100 to 1000 nM | 2 (Score 2 = 30-60% inhibition) | 2 (Score 2 = 30-60% inhibition) | 1 (Score 1 = 10-30% inhibition) | 1 (Score 1 = 10-30% inhibition) | O=C1CC2CCN(CCCc3cc(ccn3)-c3ncnc(n3)Nc3cccc(c3)CCN1)CC2 [Compound 27] |
| 4 (Score 4 = >80% inhibition) | > 1000 nM | 3 (Score 3 = 60-80% inhibition) | 2 (Score 2 = 30-60% inhibition) | > 1000 nM | 3 (Score 3 = 60-80% inhibition) | 4 (Score 4 = >80% inhibition) | 1 (Score 1 = 10-30% inhibition) | 1 (Score 1 = 10-30% inhibition) | CN1CC(=O)NCCCc2cc(ccn2)-c2ncnc(n2)Nc2cc(Cl)ccc2C1 [Compound 31] |
| 3 (Score 3 = 60-80% inhibition) | 10 to 100 nM | 4 (Score 4 = >80% inhibition) | 4 (Score 4 = >80% inhibition) | 10 to 100 nM | 4 (Score 4 = >80% inhibition) | 4 (Score 4 = >80% inhibition) | 1 (Score 1 = 10-30% inhibition) | 2 (Score 2 = 30-60% inhibition) | CN1CCC(=O)NCCCc2cc(ccn2)-c2ncnc(n2)Nc2cc(Cl)cc(c2)C1 [Compound 32] |
| 4 (Score 4 = >80% inhibition) | 10 to 100 nM | 4 (Score 4 = >80% inhibition) | 4 (Score 4 = >80% inhibition) | 10 to 100 nM | 4 (Score 4 = >80% inhibition) | 4 (Score 4 = >80% inhibition) | 2 (Score 2 = 30-60% inhibition) | 3 (Score 3 = 60-80% inhibition) | O=C1CCN2CCN(CC2)Cc2cc(Cl)cc(c2)Nc2ncnc(n2)-c2ccnc(c2)CCCN1 [Compound 37] |
